The experiment deals with T1, JAK3 (Homo sapiens, UniProt P52333).
T1 construct: The Ramos B-cell line was acquired from ATCC (ATCC Catalog No. CRL-1596); host or cells: Ramos B-cell line (human)
T1 sequence (P52333 1-1124): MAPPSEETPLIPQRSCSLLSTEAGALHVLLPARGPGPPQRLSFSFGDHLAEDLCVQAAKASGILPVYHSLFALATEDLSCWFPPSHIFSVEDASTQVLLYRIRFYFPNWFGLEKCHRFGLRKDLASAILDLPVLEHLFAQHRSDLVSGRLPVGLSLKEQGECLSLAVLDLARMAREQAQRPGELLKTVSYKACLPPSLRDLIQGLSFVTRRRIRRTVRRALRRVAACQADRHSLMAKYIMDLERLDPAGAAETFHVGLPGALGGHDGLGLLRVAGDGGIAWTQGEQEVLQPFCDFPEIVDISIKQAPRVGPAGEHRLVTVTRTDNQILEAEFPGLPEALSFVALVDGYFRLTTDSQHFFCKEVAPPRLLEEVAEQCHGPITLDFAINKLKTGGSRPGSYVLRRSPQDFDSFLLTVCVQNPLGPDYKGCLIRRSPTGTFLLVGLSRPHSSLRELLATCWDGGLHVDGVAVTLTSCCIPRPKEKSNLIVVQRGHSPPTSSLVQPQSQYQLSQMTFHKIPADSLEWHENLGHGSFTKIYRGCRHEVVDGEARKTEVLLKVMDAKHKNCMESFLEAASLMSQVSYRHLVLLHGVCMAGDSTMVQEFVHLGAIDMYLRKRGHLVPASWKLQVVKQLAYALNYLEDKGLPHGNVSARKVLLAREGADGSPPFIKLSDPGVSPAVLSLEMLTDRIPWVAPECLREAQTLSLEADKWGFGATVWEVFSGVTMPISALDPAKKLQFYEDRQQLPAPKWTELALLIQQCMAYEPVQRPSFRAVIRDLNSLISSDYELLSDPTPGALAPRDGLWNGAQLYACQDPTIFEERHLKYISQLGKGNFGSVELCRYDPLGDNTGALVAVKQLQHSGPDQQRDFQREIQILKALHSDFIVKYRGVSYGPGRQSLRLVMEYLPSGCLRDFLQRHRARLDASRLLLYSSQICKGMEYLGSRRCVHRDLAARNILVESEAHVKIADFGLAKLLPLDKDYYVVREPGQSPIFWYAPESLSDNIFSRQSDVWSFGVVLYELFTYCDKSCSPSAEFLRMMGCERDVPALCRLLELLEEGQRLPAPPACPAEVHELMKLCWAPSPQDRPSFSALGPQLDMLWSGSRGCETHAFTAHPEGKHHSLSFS
The experiment in a line: Assay for CD23 expression on Ramos B-cells stimulated by IL-4 (Table IV: ability to inhibit JAK3 activity). It is filed as cell-based. To be noted: tested under conditions described in Example 3 (so in the source). The text has this:
One means of assaying for such inhibition is detection of the effect of the 2,4-pyrimidinediamine compounds on the upregulation of downstream gene products. In the Ramos/IL4 assay, B-cells are stimulated with the cytokine Interleukin-4 (IL-4) leading to the activation of the JAK/Stat pathway through phosphorylation of the JAK family kinases, JAK1 and JAK3, which in turn phosphorylate and activate the transcription factor Stat-6. […] To study the effect of inhibitors (for example, the 2,4-substituted pyrimindinediamine compounds described herein) on the JAK1 and JAK3 kinases, human Ramos B cells are stimulated with human IL-4. 20 to 24 hours post stimulation, cells are stained for upregulation of CD23 and analyzed using FACS.
B-cells stimulated with cytokine Interleukin-4 (IL-4) activate the JAK/Stat pathway through phosphorylation of the JAK family kinases, JAK-1 and JAK-3, which in turn phosphorylate and activate the transcription factor Stat-6. […] To study the effect of inhibitors on the JAK family kinases, human Ramos B cells were stimulated with human IL-4 and the surface expression of CD23 was measured.
The day before the experiment, Ramos B-cells were diluted to 3.5×10^5 cells/mL to ensure that they were in a logarithmic growth phase.
Cells were spun down and suspended in RPMI with 5% serum. 5×10^4 cells were used per point in a 96-well tissue culture plate. Cells were pre-incubated with compound or DMSO (Sigma-Aldrich, St. Louis, Mo., Cat No. D2650) vehicle control for 1 hour in a 37° C. incubator. Cells were then stimulated with IL-4 (Peprotech Inc., Rocky Hill, N.J., Cat No. 200-04) for a final concentration of 50 units/mL for 20-24 hours. […] Detection was performed using a BD LSR I System Flow Cytometer, purchased from Becton Dickinson Biosciences of San Jose, Calif.
The compound designations in Table IV are consistent with those of Tables I-II above.

Counter-ions that a name gives are not always drawn.

The compound `O=c1[nH]c2cc(Nc3nc(Nc4ccc5c(c4)CCC(N4CCCC4)CC5)ncc3F)ccc2o1` (stereo not shown) [II-2, 5-(5-fluoro-2-(7-(pyrrolidin-1-yl)-6,7,8,9-tetrahydro-5H-benzo[7]annulen-2-ylamino)pyrimidin-4-ylamino)benzo[d]oxazol-2(3H)-one diformate salt] yielded an IC50 of less than 500 nM.
To `O=c1[nH]c2cc(Nc3nc(Nc4ccc(F)c(-c5ccncc5)c4)ncc3F)ccc2o1` [Compound I-205, 5-(2-(4-fluoro-3-(pyridin-4-yl)phenylamino)-5-fluoropyrimidin-4-ylamino)benzo[d]oxazol-2(3H)-one] belongs less than 500 nM; to `COc1cc(Nc2ncc(C)c(Nc3ccc4oc(=O)[nH]c4c3)n2)cc(C)c1Cl` [Compound I-124, 5-(2-(4-chloro-3-methoxy-5-methylphenylamino)-5-methylpyrimidin-4-ylamino)benzo[d]oxazol-2(3H)-one trifluoroacetate salt], less than 500 nM; to `Cc1cnc(Nc2ccc3c(c2)C(=O)NC3)nc1Nc1ccc2oc(=O)[nH]c2c1` [II-11, 5-methyl-N4-(2-oxo-2,3-dihydro-1,3-benzoxazol-5-yl)-N2-(1-oxo-1,3-dihydro-2H-isoindol-6-yl)-2,4-pyrimidinediamine], less than 500 nM.
To `COc1cc(Nc2ncc(F)c(Nc3cc(C)c4oc(=O)[nH]c4c3)n2)cc(C(F)(F)F)c1` [Compound I-176, 5-(2-(3-(trifluoromethyl)-5-methoxyphenylamino)-5-fluoropyrimidin-4-ylamino)-7-methylbenzo[d]oxazol-2(3H)-one trifluoroacetate salt] belongs greater than 10000 nM.
In the case of `COc1cc(Nc2ncc(C)c(Nc3ccc4oc(=O)[nH]c4c3)n2)cc(F)c1C` [Compound I-120, 5-(2-(3-fluoro-5-methoxy-4-methylphenylamino)-5-methylpyrimidin-4-ylamino)benzo[d]oxazol-2(3H)-one trifluoroacetate salt], the concentration for half-maximal inhibition (IC50) was less than 500 nM.
Compound `COc1cc(Nc2ncc(Cl)c(Nc3ccc4oc(=O)[nH]c4c3)n2)cc(C(F)(F)F)c1` [Compound I-12, 5-(5-chloro-2-(3-methoxy-5-(trifluoromethyl)phenylamino)pyrimidin-4-ylamino)benzo[d]oxazol-2(3H)-one] displayed an IC50 of less than 500 nM.
The same measure for `COc1cc(C)cc(Nc2ncc(F)c(Nc3cc(F)c4oc(=O)[nH]c4c3)n2)c1` [Compound I-179, 5-(2-(3-methoxy-5-methylphenylamino)-5-fluoropyrimidin-4-ylamino)-7-fluorobenzo[d]oxazol-2(3H)-one trifluoroacetate salt]: greater than 10000 nM; for `COc1cc(Nc2ncc(CO)c(Nc3ccc4oc(=O)[nH]c4c3)n2)cc(C)c1F` [Compound I-80, 5-(2-(4-fluoro-3-methoxy-5-methylphenylamino)-5-(hydroxymethyl)pyrimidin-4-ylamino)benzo[d]oxazol-2(3H)-one trifluoroacetate salt]: 500 to 5000 nM; for `COCc1c(C)cc(Nc2ncc(C)c(Nc3ccc4oc(=O)[nH]c4c3)n2)cc1C` [Compound I-143, N2-(3,5-dimethyl-4-methoxymethyl)phenyl-5-methyl-N4-(2-oxo-2,3-dihydro-1,3-benzoxazol-5-yl)-2,4-pyrimidinediamine]: less than 500 nM.
To `COc1cccc(Nc2ncc(Br)c(Nc3ccc4oc(=O)[nH]c4c3)n2)c1F` [Compound I-22, 5-(5-bromo-2-(2-fluoro-3-methoxyphenylamino)pyrimidin-4-ylamino)benzo[d]oxazol-2(3H)-one trifluoroacetate salt] belongs less than 500 nM; to `Cc1cc(Nc2ncc(F)c(Nc3ccc4oc(=O)[nH]c4c3)n2)cc(C)c1F` [Compound I-215, N2-(3,5-dimethyl-4-fluoro)phenyl-5-fluoro-N4-(2-oxo-2,3-dihydro-1,3-benzoxazol-5-yl)-2,4-pyrimidinediamine], less than 500 nM; to `[2H]C([2H])([2H])c1c(C)cc(Nc2nccc(Nc3ccc4oc(=O)[nH]c4c3)n2)cc1C` [Compound I-38, 5-(2-(3,5-dimethyl-4-d3-methyl)phenylamino)pyrimidin-4-ylamino)benzo[d]oxazol-2(3H)-one trifluoroacetate salt], less than 500 nM.
`COC(=O)c1cnc(Nc2cc(C)c(F)c(OC)c2)nc1Nc1ccc2oc(=O)[nH]c2c1` [Compound I-58, 2-(4-Fluoro-3-methoxy-5-methyl-phenylamino)-4-(2-oxo-2,3-dihydro-benzooxazol-5-ylamino)-pyrimidine-5-carboxylic acid methyl ester trifluoroacetate salt]: the IC50 is greater than 10000 nM.
To `COC(=O)c1cnc(Nc2ccc(C(N)=O)cc2)nc1Nc1ccc2oc(=O)[nH]c2c1` [Compound I-54, 2-(4-Carbamoyl-phenylamino)-4-(2-oxo-2,3-dihydro-benzooxazol-5-ylamino)-pyrimidine-5-carboxylic acid methyl ester trifluoroacetate salt] belongs greater than 10000 nM; to `COc1cc(Nc2ncc(F)c(Nc3cc(F)c4oc(=O)[nH]c4c3)n2)cc(C)c1OC` [Compound I-184, 5-(2-(3,4-dimethoxy-5-methylphenylamino)-5-fluoropyrimidin-4-ylamino)-7-fluorobenzo[d]oxazol-2(3H)-one trifluoroacetate salt], less than 500 nM; to `COc1ccc(Nc2ncc(Cl)c(Nc3ccc4oc(=O)[nH]c4c3)n2)c(F)c1` [Compound I-76, 5-(5-chloro-2-(2-fluoro-4-methoxyphenylamino)pyrimidin-4-ylamino)benzo[d]oxazol-2(3H)-one trifluoroacetate salt], less than 500 nM.
The same measure for `Cc1ccc(Nc2ncc(Cl)c(Nc3ccc4oc(=O)[nH]c4c3)n2)cc1N(C)C` [Compound I-33, 5-(5-chloro-2-(3-(dimethylamino)-4-methylphenylamino)pyrimidin-4-ylamino)benzo[d]oxazol-2(3H)-one]: less than 500 nM.
To `Cc1cnc(Nc2cc(C)c(C)c(C)c2)nc1Nc1ccc2oc(=O)n(COP(=O)(O)O)c2c1` [Compound I-136, 5-methyl-N4-[3-(phosphonooxy)methyl-2-oxo-2,3-dihydro-1,3-benzoxazol-5-yl]-N2-(3,4,5-trimethyl)phenyl-2,4-pyrimidinediamine dipotassium salt] belongs 500 to 5000 nM; to `Cc1cnc(Nc2cc(C)c(C)c(C(=O)O)c2)nc1Nc1ccc2oc(=O)[nH]c2c1` [Compound I-145, N2-(3-carboxy-4,5-dimethyl)phenyl-5-methyl-N4-(2-oxo-2,3-dihydro-1,3-benzoxazol-5-yl)-2,4-pyrimidinediamine], 500 to 5000 nM.
`O=c1[nH]c2cc(Nc3nc(Nc4cc(F)cc(N5CCOCC5)c4)ncc3F)ccc2o1` [Compound I-169, 5-(2-(3-fluoro-5-morpholinophenylamino)-5-fluoropyrimidin-4-ylamino)benzo[d]oxazol-2(3H)-one ditrifluoroacetate salt] came in with a concentration for half-maximal inhibition (IC50) of less than 500 nM.
To `Cc1ccc(Nc2ncc(Cl)c(Nc3ccc4oc(=O)[nH]c4c3)n2)cc1C(F)(F)F` [Compound I-9, 5-(5-chloro-2-(4-methyl-3-(trifluoromethyl)phenylamino)pyrimidin-4-ylamino)benzo[d]oxazol-2(3H)-one] belongs less than 500 nM.

These data come from patent publication US11174251B2, “Compositions and methods for inhibition of the JAK pathway” (Rigel Pharmaceuticals, Inc., priority 2010, dated 2021).
